Test results from publication PMC8271538, “Chemical Modulation of the 1-(Piperidin-4-yl)-1,3-dihydro-2H-benzo[d]imidazole-2-one Scaffold as a Novel NLRP3 Inhibitor” (Molecules, 2021).
Read-outs that look alike come from different tables or passages of the source. Marks after values point to notes of the source that are not given here.

What was measured:
[1] = tested on: NLRP3-dependent pyroptosis in differentiated THP-1 cells; assay: NLRP3-dependent pyroptosis (LDH release) in PMA-differentiated, LPS-primed, ATP-triggered THP-1 cells; type: cell-based, human
[2] = molecular target: T1, human recombinant NLRP3 (Homo sapiens, UniProt Q96P20); assay: In vitro NLRP3 ATPase activity, on-bead ADP-Glo assay with immobilised NLRP3-GFP; type: biochemical; conditions: 100 μM compound, ATP 800 μM; mean ± SEM, n = 4
T1 construct: made in house; host or cells: HEK293T cells (transient transfection, captured from lysate on GFP-Trap Sepharose)
T1 sequence (Q96P20 whole entry): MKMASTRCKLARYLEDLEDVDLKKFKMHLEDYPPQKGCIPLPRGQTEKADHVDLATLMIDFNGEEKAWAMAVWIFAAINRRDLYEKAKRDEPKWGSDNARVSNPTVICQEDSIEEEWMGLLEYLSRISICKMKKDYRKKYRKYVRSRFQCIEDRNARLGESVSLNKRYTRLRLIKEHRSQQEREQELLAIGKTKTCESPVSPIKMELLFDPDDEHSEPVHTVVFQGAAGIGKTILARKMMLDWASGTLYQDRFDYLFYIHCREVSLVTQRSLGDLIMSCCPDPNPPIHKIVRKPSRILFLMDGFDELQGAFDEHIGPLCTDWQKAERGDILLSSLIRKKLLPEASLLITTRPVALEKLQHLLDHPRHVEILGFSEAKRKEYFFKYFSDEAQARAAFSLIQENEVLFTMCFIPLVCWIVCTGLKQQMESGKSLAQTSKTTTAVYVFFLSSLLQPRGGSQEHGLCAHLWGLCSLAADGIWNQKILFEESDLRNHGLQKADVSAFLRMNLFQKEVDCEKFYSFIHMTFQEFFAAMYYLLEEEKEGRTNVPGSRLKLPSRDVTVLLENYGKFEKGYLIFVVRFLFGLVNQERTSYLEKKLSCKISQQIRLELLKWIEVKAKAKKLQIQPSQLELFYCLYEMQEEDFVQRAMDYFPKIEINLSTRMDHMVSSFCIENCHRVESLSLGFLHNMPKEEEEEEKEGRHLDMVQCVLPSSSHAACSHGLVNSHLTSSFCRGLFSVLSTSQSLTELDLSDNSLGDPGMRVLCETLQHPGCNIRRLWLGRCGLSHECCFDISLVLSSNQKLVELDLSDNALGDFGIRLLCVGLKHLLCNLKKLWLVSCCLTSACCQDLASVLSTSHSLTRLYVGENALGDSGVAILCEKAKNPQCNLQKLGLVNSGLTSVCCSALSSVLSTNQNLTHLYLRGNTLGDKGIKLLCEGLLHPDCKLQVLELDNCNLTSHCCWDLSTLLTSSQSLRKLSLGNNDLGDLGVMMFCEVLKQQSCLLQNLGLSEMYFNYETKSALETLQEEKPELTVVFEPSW

[3] = tested on: THP-1 cells
[4] = 10 µM test compound, 1 h before ATP (5 mM, 90 min), vs vehicle-treated cells, mean ± SEM, NA = not active at 10 µM
[5] = 72 h treatment, 0.1–100 µM, MTT, TC50 ± SEM of three experiments

Row | Compound | Pyroptosis Decrease, % inhibition at 10 µM [1, 4] | Inhibition of NLRP3 ATPase activity (% reduction in ATP hydrolysis relative to vehicle control) [2] | Cytotoxicity TC50 [3] [µM] | Pyroptosis Decrease, % inhibition at 10 µM [1] | Cytotoxicity TC50 [3, 5] [µM]
1 | 2-(3-(3-(2-chlorophenyl)propanoyl)-2-oxo-2,3-dihydro-1H-benzo[d]- imidazol-1-yl)propionic acid [Compound 21] | the activity was suppressed | reduced the inhibitory potential | 80.1 ± 1.4 | – | –
2 | 3-(2-chlorophenyl)-N-(4-oxo-4-(4-(2-oxo-2,3-dihydro-1H-benzo[d]imidazol-1-yl)piperidin-1-yl)butyl)propenamide [Compound 8] | 32.2 ± 10.6 ^d % | – | 86.3 ± 5.1 | – | –
3 | 1-(1-(2-(2-chlorophenyl)acetyl)piperidin-4-yl)-1,3-dihydro-2H-benzo[d]imidazol-2-one [Compound 4] | – | reduce | 80.9 ± 3.2 | inactive | –
4 | 3-(2-chlorophenyl)-N-methyl-N-(3-(2-oxo-2,3-dihydro-1H-benzo[d]imidazole-1-yl)propyl)propenamide [Compound 11] | – | – | – | inactive | –
5 | CCOC(=O)Cn1c(=O)n(CCc2ccccc2Cl)c2ccccc21 [Compound 22, Ethyl 2-(3-(2-chlorophenethyl)-2-oxo-2,3-dihydro-1H-benzo[d]imidazol-1-yl) acetate] | – | – | – | – | 92.8 ± 2.1
6 | O=C(CCc1ccccc1Cl)NCCCn1c(=O)[nH]c2ccccc21 [Compound 10, 3-(2-chlorophenyl)-N-(3-(2-oxo-2,3-dihydro-1H-benzo[d]imidazol-1-yl)propyl) propanamide] | inactive | no effect on ATPase inhibition was detected | – | – | >100
7 | N#CN=c1[nH]c2ccccc2n1C1CCN(C(=O)CCc2ccccc2Cl)CC1 [Compound 15, N-(1-(1-(3-(2-chlorophenyl)propanoyl)piperidin-4-yl)-1,3-dihydro-2H-benzo[d]imidazol-2-ylidene)cyanamide] | inactive | significant inhibition of ATPase activity | – | – | 83.4 ± 0.8
8 | O=C(CCc1ccccc1Cl)N1CCC(n2cnc3ccccc32)CC1 [Compound 14, 1-(4-(1H-benzo[d]imidazol-1-yl)piperidin-1-yl)-3-(2-chlorophenyl)propan-1-one] | inactive | – | – | – | 92.6 ± 4.0
